Tests used:
[1] = biological target: T1, GTPBP5 (GTPBP5::FLAG; GTPBP5^IP) (Homo sapiens, UniProt Q9H4K7); test: cryo-EM structure; assay type: binding; details: co-purified, not added; G-domain active site; switch I in state 2, bound to mt-LSU assembly intermediate
T1 construct: gene MTG2; Obg-domain and G-domain
T1 sequence (Q9H4K7 1-406): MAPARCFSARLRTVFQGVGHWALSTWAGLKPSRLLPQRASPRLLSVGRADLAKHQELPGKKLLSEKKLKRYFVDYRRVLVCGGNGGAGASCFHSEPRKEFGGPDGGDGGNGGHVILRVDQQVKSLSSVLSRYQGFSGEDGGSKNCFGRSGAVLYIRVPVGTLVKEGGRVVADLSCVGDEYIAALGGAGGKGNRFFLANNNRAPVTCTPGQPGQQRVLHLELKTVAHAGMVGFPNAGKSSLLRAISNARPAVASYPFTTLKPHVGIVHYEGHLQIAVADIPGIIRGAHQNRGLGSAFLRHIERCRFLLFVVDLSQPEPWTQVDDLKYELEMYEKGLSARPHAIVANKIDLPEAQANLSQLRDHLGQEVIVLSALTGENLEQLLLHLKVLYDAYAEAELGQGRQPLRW

[2] = biological target: T2, NSUN4 (MTERF4-NSUN4 complex) (Homo sapiens, UniProt Q96CB9); test: cryo-EM structure; assay type: binding; details: no RNA substrate in active site; co-purified, not added; complex bound to mt-LSU assembly intermediates
T2 construct: with Transcription termination factor 4, mitochondrial
T2 sequence (Q96CB9 26-384): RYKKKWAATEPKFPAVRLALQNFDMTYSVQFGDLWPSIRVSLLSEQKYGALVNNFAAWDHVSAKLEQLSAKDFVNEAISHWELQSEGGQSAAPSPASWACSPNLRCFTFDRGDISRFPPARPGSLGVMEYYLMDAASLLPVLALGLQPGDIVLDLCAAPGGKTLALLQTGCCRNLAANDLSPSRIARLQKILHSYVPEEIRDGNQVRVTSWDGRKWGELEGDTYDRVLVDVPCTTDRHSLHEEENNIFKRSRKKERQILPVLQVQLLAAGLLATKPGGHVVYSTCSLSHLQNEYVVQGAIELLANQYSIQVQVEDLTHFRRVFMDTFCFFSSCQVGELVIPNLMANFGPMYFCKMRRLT
T2 sequence (Q7Z6M4 43-381 partner): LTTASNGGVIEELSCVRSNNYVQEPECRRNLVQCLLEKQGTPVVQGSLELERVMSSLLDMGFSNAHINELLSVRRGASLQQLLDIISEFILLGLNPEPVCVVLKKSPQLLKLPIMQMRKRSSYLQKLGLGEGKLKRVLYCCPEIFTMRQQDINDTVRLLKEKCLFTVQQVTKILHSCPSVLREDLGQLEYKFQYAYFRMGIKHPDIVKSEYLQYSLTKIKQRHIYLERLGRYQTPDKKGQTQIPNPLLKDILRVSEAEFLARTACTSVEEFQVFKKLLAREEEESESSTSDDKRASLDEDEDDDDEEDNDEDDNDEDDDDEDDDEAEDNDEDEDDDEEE

Structure (SMILES)	cryo-EM structure [1]	cryo-EM structure [2]
Nc1nc2c(ncn2[C@@H]2O[C@H](COP(=O)(O)OP(=O)(O)OP(=O)(O)O)[C@@H](O)[C@H]2O)c(=O)[nH]1 [GTP]	In our GTPBP5^IP structure, the G-domain has GTP in its active site	–
C[S+](CC[C@H](N)C(=O)O)C[C@H]1O[C@@H](n2cnc3c(N)ncnc32)[C@H](O)[C@@H]1O (some centres unmarked) [S-adenosyl-methionine]	–	the methyl-donor S-adenosyl-methionine (SAM) is observed in the NSUN4 active site
